Experimental data from article PMC8373216, “Development and Preclinical Evaluation of New Inhaled Lipoglycopeptides for the Treatment of Persistent Pulmonary Methicillin-Resistant Staphylococcus aureus Infections” (Antimicrobial Agents and Chemotherapy, 2021).
Converted amounts (≈) assume the structure as drawn. Like-named read-outs stand apart in the source and are kept apart here.

Legend:
[1] = tested on: Streptococcus mitis; assay: Expanded panel broth microdilution MIC/MBC; type: cell-based; settings: for MIC: Streptococcus mitis
[2] = tested on: Staphylococcus lugdunensis; assay: Expanded panel broth microdilution MIC; type: cell-based
[3] = Single-dose nebulized nose-only inhalation PK in healthy rats; type: in vivo, rat; settings: rat, in vivo
Method: Rats were acclimated in the study facility for approximately 1 week prior to study start. Ten or eleven rats per cohort were loaded into the chamber at the time of dosing. […] An additional airflow set to 6 liters/min was admixed with the nebulizer output to further direct the test articles to the animals. […] The remaining port on the chamber was fit with an aerosol sampling filter for dose determination over a 5 min sampling period. The average dose delivered to the nose of each animal was calculated using an algorithm that was previously described ([49]). […] Animals were euthanized for collection of whole lungs and plasma at time points ranging from immediate postdose (IPD; approximately 30 min after dosing for nebulization) to 168 h postdose (7 days). Drugs were extracted from tissues using customized protein precipitation methods with an appropriate internal standard for each compound and transferred for analysis by LC-MS/MS (Sciex API4500 or API6500+ mass spectrometer [Sciex, Framingham, MA]). GraphPad Prism (La Jolla, CA) was used for statistical analyses and data plotting. […] The data were applied to a noncompartmental analysis after extravascular dosing input and fit to a linear up/log down model. Statistical analysis of in vitro intracellular and biofilm activity was based on a two-way ANOVA with a Bonferroni post test. In vivo statistical analysis was based on the Kolmogorov-Smirnov test.

[4] = tested on: Staphylococcus hominis; assay: Expanded panel broth microdilution MIC; type: cell-based
[5] = tested on: MRSA ATCC BAA 1556 (USA300) biofilm; assay: MRSA biofilm killing, MBEC assay system, TSB with 1% human plasma; settings: MBEC
[6] = tested on: Streptococcus pyogenes; assay: Expanded panel broth microdilution MIC/MBC; type: cell-based; settings: for MIC: Streptococcus pyogenes
[7] = tested on: MRSA (ATCC BAA 1556; USA300); assay: Acute pulmonary MRSA infection in neutropenic rats, nebulized nose-only inhalation; type: in vivo, Staphylococcus aureus; settings: inhaled at 24 and 32 h postinfection, lungs at 48 h, RV40 14.4 mg/kg, RV94 18.8 mg/kg delivered
Method: Rats were rendered neutropenic with intraperitoneal (i.p.) cyclophosphamide on day −4 (150 mg/kg) and day −1 (100 mg/kg) relative to the challenge. On day 0 at 0 h, rats were challenged with MRSA via intranasal instillation at a target titer of 8.0 to 8.3 log10 CFU. At 24 and 32 h postchallenge, rats were loaded into a 12-port inhalation dosing tower, where they received nebulized drug or vehicle control treatments by nose-only inhalation. Animals were euthanized at 48 h postinfection for enumeration of lung MRSA titer. MRSA lung titer of test article treatments versus control is plotted for three separate experiments. […] Statistics are based on the Kolmogorov-Smirnov test for drug treatment versus control (RV94, P = 0.01). LOD = 2.1 log10 CFU/lungset.
Male Sprague Dawley rats (Envigo, Indianapolis, IN) weighing between 225 and 250 g were used in these studies. Rats were housed and acclimated to the study facility as described in the PK methods section. Rats were rendered neutropenic through a series of intraperitoneal cyclophosphamide (Sigma-Aldrich) injections on day −4 (150 mg/kg) and day −1 (100 mg/kg) relative to the challenge. On day 0 at 0 h, rats were challenged with MRSA ATCC BAA 1556 via intranasal instillation at a target titer of 8.0 to 8.3 log10 CFU using optical density and back-counting inoculum CFU. To prepare the inoculum, a frozen aliquot of the organism stored at −80°C was thawed, transferred into TSB, and incubated at 37°C while shaking for 16 h. Cultures were then centrifuged at 2,000 × g for 5 min, and the resulting pellet was resuspended in PBS and equilibrated. For the challenge procedure, rats were first anesthetized through use of 2 to 5% isoflurane in 100% oxygen, then restrained with a scruff grip and a total of 200 μl of inoculum was quickly introduced to one nare. The rat was held in a vertical position until the challenge was fully inhaled. Rats were monitored following challenge to ensure that normal respiration was achieved and then returned to their cage. […] At necropsy, whole lungs were aseptically removed and lung weights were recorded. […]

[8] = tested on: Enterococcus faecalis; assay: Expanded panel broth microdilution MIC/MBC; type: cell-based
[9] = tested on: MSSA ATCC 29213; assay: In-house broth microdilution MIC screening; type: cell-based; settings: Staphylococcus aureus; broth microdilution; read-out: MIC Value, MSSA ATCC 29213
[10] = tested on: Streptococcus pneumoniae; assay: Expanded panel broth microdilution MIC/MBC; type: cell-based
[11] = tested on: Clostridioides difficile; assay: Expanded panel broth microdilution MIC; type: cell-based
[12] = tested on: Staphylococcus haemolyticus; assay: Expanded panel broth microdilution MIC; type: cell-based
[13] = male, Sprague Dawley, inhaled or intranasal

CCCCCCCCCCNCCN[C@@]1(C)C[C@H](O[C@H]2[C@H](Oc3c4cc5cc3Oc3ccc(cc3Cl)[C@@H](O)[C@@H](NC(=O)[C@@H](CC(C)C)NC)C(=O)N[C@@H](CC(N)=O)C(=O)N[C@H]5C(=O)N[C@H]3C(=O)N[C@H](C(=O)N[C@H](C(=O)O)c5cc(O)cc(O)c5-c5cc3ccc5O)[C@H](O)c3ccc(c(Cl)c3)O4)O[C@H](CO)[C@@H](O)[C@@H]2O)O[C@@H](C)[C@H]1O [RV40, N-decylaminoethylvancomycin]
MIC:MBC ([1]; S. mitis MGS, MBC on one organism): 1
MIC ([1]; ATCC49456, S. mitis (MGS) ATCC 49456, read-out: MIC): 0.008 µg/mL (≈ 4.9 nM)
MIC ([1]; S. mitis (MGS) MMX 5798, read-out: MIC): 0.03 µg/mL (≈ 18.4 nM)
MIC ([1]; S. mitis MGS, 2 isolates, read-out: MIC (median)): 0.02 µg/mL (≈ 12.3 nM)
MIC ([2]; S. lugdunensis, 1 isolate): 0.004 µg/mL (≈ 2.45 nM)
MIC ([2]; Staphylococcus lugdunensis, S. lugdunensis MMX 8724, read-out: MIC): 0.004 µg/mL (≈ 2.45 nM)
Pulmonary dose ([3]; male, Sprague Dawley): 0.30 mg/kg
Drug lung level at 120 h ([3]; male, Sprague Dawley, 120 h): 105%
Kp [3, 13]: 690
Lung AUC0-∞ [3, 13]: 9800 µg·h/g
Lung Cmax [3, 13]: 48 µg/g
Plasma Cmax [3, 13]: 100 ng/mL
Elimination from the lung [3]: not measurably eliminated from the lung
MIC ([4]; ATCC27844, S. hominis ATCC 27844, read-out: MIC): 0.015 µg/mL (≈ 9.19 nM)
MIC ([4]; S. hominis, 1 isolate, read-out: MIC): 0.015 µg/mL (≈ 9.19 nM)
Reduction in MRSA biofilm titer compared to untreated biofilm ([5]; 128 μg/ml): 4 log10 CFU/peg
Concentrations with statistically significant reduction versus control biofilm ([5]; two-way ANOVA, Bonferroni): ≥ 4 µg/mL
MIC:MBC ([6]; S. pyogenes ermR): 1
MIC ([6]; ATCC19615, S. pyogenes ATCC 19615, read-out: MIC): 0.06 µg/mL (≈ 36.8 nM)
MIC ([6]; S. pyogenes MMX 946, ermR, read-out: MIC): 0.008 µg/mL (≈ 4.9 nM)
MIC ([6]; S. pyogenes MMX 8778, read-out: MIC): 0.015 µg/mL (≈ 9.19 nM)
MIC ([6]; S. pyogenes ermR, 1 isolate, read-out: MIC): 0.008 µg/mL (≈ 4.9 nM)
MIC ([6]; S. pyogenes, 2 isolates, read-out: MIC (median)): 0.04 µg/mL (≈ 24.5 nM)
Average reduction in lung MRSA titer versus vehicle control [7]: 0.8 log10 CFU
MIC:MBC ([8]; E. faecalis VSE, MBC on one organism): >8
MIC:MBC ([8]; E. faecalis VanA VRE): 8
MIC ([8]; E. faecalis VanA VRE, 1 isolate): 0.5 µg/mL (≈ 306 nM)
MIC ([8]; Enterococcus faecalis, ATCC29212, E. faecalis ATCC 29212, VSE, read-out: MIC): 0.015 µg/mL (≈ 9.19 nM)
MIC ([8]; Enterococcus faecalis, E. faecalis MMX 1086, VanA VRE, read-out: MIC): 0.5 µg/mL (≈ 306 nM)
MIC ([8]; Enterococcus faecalis, E. faecalis MMX 4176, VSE, read-out: MIC): 0.03 µg/mL (≈ 18.4 nM)
MIC ([8]; Enterococcus faecalis, E. faecalis VSE, 2 isolates, read-out: MIC (median)): 0.023 µg/mL (≈ 14.1 nM)
MIC [9]: 0.016 µg/mL (≈ 9.8 nM)
MIC:MBC ([10]; S. pneumoniae PISP, MBC on one organism): 1
MIC ([10]; S. pneumoniae PRSP, 1 isolate): ≤0.008 µg/mL
MIC ([10]; Streptococcus pneumoniae, ATCC49619, S. pneumoniae ATCC 49619, PISP, read-out: MIC): 0.004 µg/mL (≈ 2.45 nM)
MIC ([10]; Streptococcus pneumoniae, S. pneumoniae MMX 432, PRSP, read-out: MIC): ≤ 0.008 µg/mL
MIC ([10]; Streptococcus pneumoniae, S. pneumoniae MMX 747, PISP, read-out: MIC): 0.004 µg/mL (≈ 2.45 nM)
MIC ([10]; Streptococcus pneumoniae, S. pneumoniae PISP, 2 isolates, read-out: MIC (median)): 0.004 µg/mL (≈ 2.45 nM)
MIC ([11]; ATCCBAA1805, C. difficile ATCC BAA-1805, ribo 027, read-out: MIC): 0.06 µg/mL (≈ 36.8 nM)
MIC ([11]; ATCCBAA1870, C. difficile ATCC BAA-1870, NAP1;ribo 027, read-out: MIC): 0.12 µg/mL (≈ 73.5 nM)
MIC ([11]; C. difficile ATTC 700057, toxAB-, read-out: MIC): 0.06 µg/mL (≈ 36.8 nM)
MIC ([11]; C. difficile NAP1;ribo 027, 1 isolate, read-out: MIC): 0.12 µg/mL (≈ 73.5 nM)
MIC ([11]; C. difficile ribo 027, 1 isolate, read-out: MIC): 0.06 µg/mL (≈ 36.8 nM)
MIC ([11]; C. difficile toxAB-, 1 isolate, read-out: MIC): 0.06 µg/mL (≈ 36.8 nM)
MIC ([12]; ATCC29970, S. haemolyticus ATCC 29970, read-out: MIC): 0.015 µg/mL (≈ 9.19 nM)
MIC ([12]; S. haemolyticus, 1 isolate, read-out: MIC): 0.015 µg/mL (≈ 9.19 nM)
